Measurements reported in article PMC11765572 (International Journal of Molecular Sciences, 2025).
Read-outs that look alike come from different tables or passages of the source.

Columns and labels:
[1] = target: T1, SARS-CoV-2 M^pro (Severe acute respiratory syndrome coronavirus 2, UniProt P0DTD1); assay: biochemical; details: FRET; for IC50: substrate Dabcyl-[…]-Edans, mean ± SD of three independent measurements; for inhibition at 1 µM: single concentration of 1 μM, read-out: inhibition rate
T1 construct: main protease (M^pro, also known as Nsp5 and 3C-like protease); purchased Beyotime P0312S

[2] = in vitro; details: African green monkey
[3] = system: SARS-CoV-2 (BetaCov/Belgium/GHB-03021/2020 B.1 lineage A); assay: microbe, parasite or virus in culture; details: Severe acute respiratory syndrome coronavirus 2, 96 h, mean ± SD of two independent replicates
[4] = system: SARS-CoV-2 (BetaCov/Belgium/GHB-03021/2020 B.1 lineage A); details: […]; mean ± SD of two independent replicates
[5] = system: SARS-CoV-2 delta strains; design: method as in PMID 39072488; details: delta strain, Vero E6 cells, viral copy numbers in supernatant by qRT-PCR; cited from earlier work
[6] = system: SARS-CoV-2 (BetaCov/Belgium/GHB-03021/2020 B.1 lineage A); details: VeroE6-eGFP cells; from a previous report, measured under identical conditions; cited from earlier work
[7] = system: VeroE6-eGFP cells; details: from a previous report, measured under identical conditions; cited from earlier work

| SMILES | IC50 [1] | inhibition at 1 µM [1] | CC50 at 5 days [2] | EC50 [3] | EC50 [4] | EC50 [5] | EC50 [6] | CC50 [7] |
| --- | --- | --- | --- | --- | --- | --- | --- | --- |
| CNC(=O)c1cc(Br)cc([N+](=O)[O-])c1N[C@@H]1CCCC[C@@H]1NC(=O)c1cccnc1 [Compound A5, N-((1S,2R)-2-((4-bromo-2-(methylcarbamoyl)-6-nitrophenyl)amino)cyclohexyl)nicotinamide] | 1.05 ± 0.067 µM | 53.7% | > 100 µM | 2.01 to 6.05 µM |  |  |  |  |
| CNC(=O)c1cc(Br)cc([N+](=O)[O-])c1N[C@@H]1CCCC[C@@H]1NC(=O)c1cncc(O)c1 [Compound A6, N-((1S,2R)-2-((4-bromo-2-(methylcarbamoyl)-6-nitrophenyl)amino)cyclohexyl)-5-hydroxynicotinamide] | 1.08 ± 0.023 µM | 55.5% | > 100 µM |  |  |  |  |  |
| CNC(=O)c1cc(Br)cc([N+](=O)[O-])c1N[C@@H]1CCCC[C@@H]1NC(=O)c1cc(=O)[nH]c2ccccc12 [Compound A9, N-((1S,2R)-2-((4-bromo-2-(methylcarbamoyl)-6-nitrophenyl)amino)cyclohexyl)-2-oxo-1,2-dihydroquinoline-4-carboxamide] | 0.154 ± 0.006 µM | 92% | > 100 µM | 0.18 ± 0.02 µM | micromolar or submicromolar range | 0.849 µM |  |  |
| CC(C)(C)[C@H](NC(=O)C(F)(F)F)C(=O)N1C[C@H]2[C@@H]([C@H]1C(=O)N[C@H](C#N)C[C@@H]1CCNC1=O)C2(C)C [Nirmatrelvir] |  |  |  |  |  |  | 0.123 ± 0.034 µM | > 100 µM |
